The OPERA property sets (Mansouri et al. 2018)

First: N=C(N)NC(=O)c1nc(Cl)c(N)nc1N
Second: O=C(O)c1cccc(Cl)c1Cl
The melting point of the first is higher: 241 °C for the first, 169 °C for the second.

First: C=CC(N)=O
Second: COc1cccc(C(N)=O)c1
The melting point of the first is lower: 84.5 °C for the first, 134 °C for the second.

First: Cc1cncnc1
Second: CC(C)(C(=O)c1cccnc1)c1cccnc1
The melting point of the first is lower: 30.5 °C for the first, 50.5 °C for the second.

Compared with `CC(O)CNCCN` (stereo not given), `NCCCO` is higher in melting point: -50 °C for the first, 11 °C for the second.

Going from `Clc1cc(Cl)c(Cl)cc1Cl` to `Oc1ccc(Cl)cc1O`, the melting point falls from 140 °C to 90.5 °C.

First: O=[N+]([O-])c1ccc(N=Nc2ccc(N(CCO)CCO)cc2Cl)cc1
Second: O=C(O)CCCc1ccc(N(CCCl)CCCl)cc1
The melting point of the first is higher: 190 °C for the first, 65 °C for the second.

Compared with `COC(=O)CC#N`, `CCCCCCOC(=O)CC` is lower in melting point: -22.5 °C for the first, -57.5 °C for the second.

Compared with `NCCCCCCCN`, `CCCCCCCC(=O)CC` is lower in melting point: 28.9 °C for the first, 2.5 °C for the second.

First: N#Cc1c[nH]cc1-c1cccc2c1OC(F)(F)O2
Second: N#Cc1cccc(F)c1
The melting point of the first is higher: 200 °C for the first, -16 °C for the second.

First: CC(=O)NCCSC(C)=O
Second: CC(=O)CC(=O)c1ccccc1
The melting point of the first is lower: 32.5 °C for the first, 56 °C for the second.

First: C[C@]12CCC(=O)C=C1CC[C@@H]1[C@@H]2C(=O)C[C@@]2(C)[C@H]1CC[C@]2(O)[C@H](O)CO
Second: CC(C)[C@H]1CC[C@]2(C)C[C@H](O)[C@]3(C)CC[C@]12O3
The melting point of the first is higher: 208 °C for the first, 114 °C for the second.

Going from `CC(C)(C)c1ccc(OC(=O)c2ccccc2O)cc1` to `NC(=O)C1c2ccccc2CCc2ccccc21`, the melting point rises from 62 °C to 194 °C.

First: CC(/C=C/C=C(C)/C=C/[C@@]12O[C@]1(C)C[C@@H](O)CC2(C)C)=C\C=C\C=C(C)\C=C\C=C(C)\C=C\[C@@]12O[C@]1(C)C[C@@H](O)CC2(C)C
Second: O=C(O)C1C(C(=O)O)C2(Cl)C(Cl)=C(Cl)C1(Cl)C2(Cl)Cl (stereo not given)
The melting point of the first is lower: 208 °C for the first, 209 °C for the second.

Going from `O=CN(c1ccccc1)c1ccccc1` to `O=C(OOC(=O)c1ccccc1)c1ccccc1`, the melting point rises from 73.5 °C to 105 °C.

First: CCC(Br)CBr (stereo not given)
Second: CCC1CCCC1
The melting point of the first is higher: -65.4 °C for the first, -138 °C for the second.

First: CC(=O)Nc1cccc(C)c1
Second: O=C(Br)c1ccccc1
The melting point of the first is higher: 65.5 °C for the first, -24 °C for the second.

Going from `CN(C)C1=NC(=O)C(c2ccccc2)O1` (stereo not given) to `OB(O)c1ccccc1`, the melting point rises from 134 °C to 219 °C.

Compared with `CCCCCCCCCC(=O)OC(=O)CCCCCCCCC`, `CCCCCCCCCCCCCCCCCCCCCCCCCC(=O)O` is higher in melting point: 24.7 °C for the first, 88.5 °C for the second.

First: Oc1c(F)cccc1F
Second: CC(C)(C)C(O)C(Oc1ccc(Cl)cc1)n1cncn1 (stereo not given)
The melting point of the first is lower: 39.5 °C for the first, 124 °C for the second.

Compared with `O=c1oc2ccccc2c(O)c1C1CCCc2ccccc21` (stereo not given), `c1ccc2nc(-c3ccc4ccccc4n3)ccc2c1` is higher in melting point: 172 °C for the first, 194 °C for the second.

Compared with `CCCCCCC/C=C\C(=O)O`, `O=C(O)c1ccc([N+](=O)[O-])o1` is higher in melting point: 12 °C for the first, 186 °C for the second.

First: Cc1ncsc1C
Second: CN(C)C(=O)Oc1cccc([N+](C)(C)C)c1.COS(=O)(=O)[O-]
The melting point of the first is lower: 83.5 °C for the first, 143 °C for the second.

`C1CN2CCC1CC2` gave a melting point of 158 °C.

Compared with `C=CC(N)=O`, `CCOC(=O)C(C)(C)O` is lower in boiling point: 193 °C for the first, 150 °C for the second.

Going from `Cc1cncnc1` to `COc1cc(C)ccc1C`, the boiling point rises from 153 °C to 194 °C.

Compared with `CCSc1ccc(C)cc1`, `CC(=O)Nc1cccc(C)c1` is higher in boiling point: 220 °C for the first, 303 °C for the second.

Going from `Clc1cc(Cl)c(Cl)cc1Cl` to `N#Cc1cccc(F)c1`, the boiling point falls from 244 °C to 182 °C.

Going from `COc1cccc(C)c1OC` to `Cc1ccccc1N=C=O`, the boiling point falls from 204 °C to 185 °C.

Going from `COC(=O)CC#N` to `CCCCCCOC(=O)CC`, the boiling point falls from 200 °C to 190 °C.

Compared with `C=CC(C)(C)CCC`, `CCCCC(C)(C)CO` is higher in boiling point: 104 °C for the first, 172 °C for the second.

First: NCCCCCCCN
Second: CCCCCCCC(=O)CC
The boiling point of the first is higher: 224 °C for the first, 203 °C for the second.

First: FC1C(F)(F)C(F)(F)C(F)(F)C(F)(F)C1(F)F
Second: O=S(=O)(O)C(F)(F)C(F)(F)C(F)(F)C(F)(F)C(F)(F)F
The boiling point of the first is lower: 62 °C for the first, 225 °C for the second.

Going from `CCC(CC)CCC(C)C` to `CC(C)CCOCCC(C)C`, the boiling point rises from 160 °C to 172 °C.

First: OCC(F)(F)C(F)C(F)(F)F (stereo not given)
Second: NCCCO
The boiling point of the first is lower: 117 °C for the first, 188 °C for the second.

Going from `O=CN(c1ccccc1)c1ccccc1` to `O=C(Br)c1ccccc1`, the boiling point falls from 338 °C to 218 °C.

Compared with `CCC(Br)CBr` (stereo not given), `CCC(=O)C(C)C` is lower in boiling point: 166 °C for the first, 114 °C for the second.

Compared with `CCC1CCCC1`, `CC/C=C\CC1=C(C)CCC1=O` is higher in boiling point: 104 °C for the first, 258 °C for the second.

Going from `CC(=O)CC(=O)c1ccccc1` to `Cc1ncsc1C`, the boiling point falls from 262 °C to 158 °C.

Going from `C=CC(N)=O` to `CC(=O)Nc1cccc(C)c1`, the log10 Koc (L/kg) falls from 1.7 to 1.45.

First: Clc1cc(Cl)c(Cl)cc1Cl
Second: O=C(O)C1C(C(=O)O)C2(Cl)C(Cl)=C(Cl)C1(Cl)C2(Cl)Cl (stereo not given)
The log10 Koc (L/kg) of the first is higher: 4.1 for the first, 2.79 for the second.

Going from `c1ccc2nc(-c3ccc4ccccc4n3)ccc2c1` to `CC(C)(C)C(O)C(Oc1ccc(Cl)cc1)n1cncn1` (stereo not given), the log10 Koc (L/kg) falls from 4.02 to 2.7.

With `CCOP(=O)(NC(C)C)Oc1ccc(S(C)(=O)=O)c(C)c1` (stereo not given) the log10 Koc (L/kg) was 1.64.

First: C=CC(N)=O
Second: CCC(=O)C(C)C
The log10 vapour pressure (mmHg) of the first is lower: -2.15 for the first, 1.26 for the second.

Compared with `C[Si](C)(Cl)c1ccccc1`, `O=C(Br)c1ccccc1` is lower in log10 vapour pressure (mmHg): -0.14 for the first, -0.654 for the second.

First: Clc1cc(Cl)c(Cl)cc1Cl
Second: O=C(O)c1cccc(Cl)c1Cl
The log10 vapour pressure (mmHg) of the first is higher: -2.27 for the first, -3.64 for the second.

First: COC(=O)CC#N
Second: COc1cccc(OC)c1C(=O)O
The log10 vapour pressure (mmHg) of the first is higher: -0.86 for the first, -6.72 for the second.

Going from `N#Cc1c[nH]cc1-c1cccc2c1OC(F)(F)O2` to `O=c1oc2ccccc2c(O)c1C1CCCc2ccccc21` (stereo not given), the log10 vapour pressure (mmHg) falls from -8.53 to -10.2.

First: CCCCCC
Second: NCCCO
The log10 vapour pressure (mmHg) of the first is higher: 2.18 for the first, -1.11 for the second.

First: CCC(Br)CBr (stereo not given)
Second: CC(C)CCOCCC(C)C
The log10 vapour pressure (mmHg) of the first is higher: 0.491 for the first, 0.146 for the second.

Going from `CCC1CCCC1` to `C1CN2CCC1CC2`, the log10 vapour pressure (mmHg) falls from 1.6 to 0.282.

With `CC(C)(C)C(O)C(Oc1ccc(Cl)cc1)n1cncn1` (stereo not given) the log10 vapour pressure (mmHg) was -9.51.

With `C=CC(N)=O` the ready biodegradability was “readily biodegradable”.
In the case of `Clc1cc(Cl)c(Cl)cc1Cl`, the ready biodegradability is reported as “not readily biodegradable”.
For `CCCCCC`, the ready biodegradability was “readily biodegradable”.
In the case of `CC(C)CCOCCC(C)C`, the ready biodegradability is reported as “not readily biodegradable”.
For `Oc1ccc(Cl)cc1O`, the ready biodegradability was “not readily biodegradable”.
For `CC(=O)CC(=O)c1ccccc1`, the ready biodegradability was “readily biodegradable”.
In the case of `O=C(O)C1C(C(=O)O)C2(Cl)C(Cl)=C(Cl)C1(Cl)C2(Cl)Cl` (stereo not given), the ready biodegradability is reported as “not readily biodegradable”.
In the case of `N[C@@H](CSSC[C@H](N)C(=O)O)C(=O)O`, the ready biodegradability is reported as “readily biodegradable”.
For `CCCCCCCCCCCC(=O)Oc1c(Cl)c(Cl)c(Cl)c(Cl)c1Cl`, the ready biodegradability was “not readily biodegradable”.
In the case of `O=C(OOC(=O)c1ccccc1)c1ccccc1`, the ready biodegradability is reported as “readily biodegradable”.
With `CCC(=O)Nc1cc(N(CCOC(C)=O)CCOC(C)=O)ccc1N=Nc1ccc([N+](=O)[O-])cc1Cl` the ready biodegradability was “not readily biodegradable”.

`Clc1cc(Cl)c(Cl)cc1Cl` gave a log10 Henry constant (atm·m³/mol) of -3.

First: Clc1cc(Cl)c(Cl)cc1Cl
Second: CCCCCC
The log10 Koa of the first is higher: 5.63 for the first, 2.4 for the second.

Compared with `CCCCCC`, `CCC1CCCC1` is higher in log10 biodegradation half-life (days): 0.954 for the first, 1.18 for the second.
